Assay results reported in patent EP0893123A1, “AGENT FOR USE IN THE PREVENTION AND TREATMENT OF DISORDERS ASSOCIATED WITH VARIOUS TYPES OF AGEING” (Peganov, Eduard Maximovich, priority 1995, dated 1997).

How the values were obtained:
pneumococcus = experiment: Bacterial shock model (intraperitoneal pneumococcus culture, minimal lethal dose)
staphylococcus toxin = system: staphylococcus toxin; parameters: species or system outbred white rats; settings: rat, in vivo
hippocampus of old rats = experiment: Long term potentiation (LTP, model of ageing): electrophysiology of hippocampal slices from treated old rats; assay type: in vivo; parameters: PS amplitude on the average: unit not given here
Excerpt: The following examples illustrate the invention: Example 1. Long term potentiation (LTP, model of ageing) The adequacy of the choice of the model is due the following factors: • LTP phenomenon relates to function of memory, being an initial stage in a chain of processes, resulting in formation of traces of long-term memory, since the impairment of LTP is accompanied on the behavioral level by impairment of memory, first of all on current events (Landfield . W., Lynch G., " Impaired monosynaptic potentiation of in vitro hippocmpal slices aged memory-deficient rats., J. Gerontology, 1977, v.32, 5, pp. 523-533; Landfield P.W., Pilter T.A. Applegate M. D., " The aged hippocampus: A model system for studies on mechanisms of behavioral plasticity and brain ageing) The Hippocampus, 1986, v.3, pp. 323-367). • the decrease of the content of various protein structures in old animals is reported (Monaghan D.T.et al is observed., " Age dependent loss of NMDA receptors in rodent brains ", Soc. Neurosci. Abstr.,1988, v.14, p.486; Angeluoci L., Imperato A.. " Age-dependent loss of muscarinic receptors and cholinergic impairment in the rats brain ", Neuroscience Letters, Suppl. 39, 1990, p. 8), • the degree of dementia was reported to correlate with decrease of the membrane surface density of N-methyl-D-aspartate receptors, responsible for LTP, in patients with SDAT (Represa A., et al., " Is senile dementia of the Alzheimer type associated with hippocampal plasticity", Brain research, 1988, v.457, 355-359). the decrease of the rate of overall protein synthesis and, as a consequence, deficits of various proteins and products of non-protein synthesis is characteristic not only for a brain, but also for all organs and systems and are the mostly ascertained facts, concerning ageing, and recognised markers of ageing (Markides S.C. " Protein synthesis and degradation during aging and senescence ", Biol. Rev., 19836 v.58, 343-422; Rattan S. I., " Ageing and discase: proteins as the molecular link ", Perspect. Biol and Med., 1991, v.34, 4. Pp 526-533).
(§1) The experiments were performed on 20 old (29-30 months) outbred female rats. During 21 days control group (9 rats) received usual water as free drinking, and experimental group (11 rats) drank water, containing ? 2O. Control weighing and visual observation of their behaviour was carried out. Then for 6 days both groups received usual water "to wash out " heavy water from the body in order to put both groups in equal conditions in the subsequent experiments. After that the experiment was carried out as follows: each day one control or one experimental animal was narcotised by urethane (1,3 g/kg) and decapitated. The hippocampal slices then were prepared, which were transferred to the special thermostatic chamber, where they were incubated during the experiment. The chamber was perfused at the rate of 2 ml/minute with physiological solution (content in mM: NaCl-124; KCl-5,0; CaCl2-2,5; MgSO4- 2,4; KH2PO4-1,25; NaHCO3-26; glucose-15; pH―7,4-7,5;), saturated with carbogen (95 % O2 and 5 % CO2). The slices were stored for 20-30 minutes at room temperature, then temperature was increased up to 28-29°C. Electrical activity was recorded in 1-1,5 hour after preparation of slices. The recording glass microelectrodes, filled with 2M solution of sodium citrate (electrical resistance 5-25 Mo ? ) were inserted into the layer of pyramidal neurones. Electrical stimulation of Shaffer's collaterals was made through double-barrel glass microelectrodes, filled with physiological solution, with the resistance up to 2 Mo ? , by the rectangular pulses (amplitude up to 40 V, duration 0.2 msec, frequency 0,2-0,3 Hz). Data processing was made on the computer (" Electronics D3-28 ").
Results . On the average in control group weight of the animals was : at the 1-st day 365 ± 37 g, at 21-th day 380 ± 38 g. […]

[1] = system: pseudomonas aeruginosa strain N 450; experiment: Model of sepsis (intramuscular pseudomonas aeruginosa culture in 10% CaCl2); settings: D2O consumed 2 days before and 9 days after infection, fig. 8
[2] = Body weight of old rats during 21 days of drinking water containing D2O; assay type: in vivo; settings: for weight of the animals: experimental group
Method: as §1

deuterium oxide [heavy water]
experimental animals still alive (pneumococcus; in 48 hours, when 100% of control animals had died, fig. 5): 50% | dying delayed with respect to control animals (pneumococcus; pneumococcus culture, 10 mice, D2O drunk 2-4 days before, fig. 5): about 24 hours | dying delayed (pneumococcus; with additional treatment during shock to maintain blood circulation, fig. 6): 48 h | survival of animals (staphylococcus toxin): 40% | time of dying (staphylococcus toxin): delay of the time of dying | LTP occurred (share of rats) (hippocampus of old rats; 7 of 10 old rats of experimental group): 70% | Focal evoked potentials (FEP) with preserved pre- and postsynaptic components registered (share of HSs) (hippocampus of old rats; 12 of 18 experimental hippocampal slices): 67% | spontaneous pulse activity of pyramidal neurons of field CA1 detected (share of HSs) (hippocampus of old rats; 13 of 18 experimental hippocampal slices, 21 days D2O, 6 days wash out): 72% | LTP occurred (number of HSs) (hippocampus of old rats; LTP = PS amplitude after tetanization increased more than by 25 %, sustained more than 30 minutes): 10 of 18 | increment of the potentiated response (hippocampus of old rats; after second tetanization, example of figure 4): 730% | PS amplitude increased on the average (LTP) (hippocampus of old rats; after tetanization, experimental group): 151 % + 26 | effect of repeated tetanization (hippocampus of old rats; all cases, experimental group): further increase of the potentiated response | persistence of restored LTP after cancellation of treatment (hippocampus of old rats; last three treated animals tested on 25-th, 26-th and 27-th days after D2O cancellation): persisted long (about month) after cancellation of treatment | PS amplitude on the average (hippocampus of old rats; population spikes in experimental HSs): 217 ± 55 | average increase of amplitude PS (frequency potentiation) (hippocampus of old rats; stimulation by frequency of 1 Hz): 55±31% | delay of lethal outcomes [1]: 3 days | decrease of lethality ([1]; vs control): 3 times | weight of the animals ([2]; at 21-th day of drinking water containing D2O): 375 ± 34 g | weight of the animals ([2]; at the first day, old (29-30 months) female rats): 373 ± 25 g | differences in animals weight and in the weight increment between the two groups ([2]; experimental vs control group, 21 days): No statistically significant differences
